What was measured:
CT-26 tumors [1] = test: Flow-cytometry of intra-tumoral immune cell populations in excised CT-26 tumors; format: in vivo, mice; conditions: tumors excised day 20, 1 h after last dose of Compound A
Protocol: (§1) For mechanism analysis CT-26 tumors are excised on day 20, 1 h following the last dose of Compound A. A small piece of approximately 30 mg is cut and stored in RNALater for gene expression analysis. The remainder of the tumor is processed for the flow-cytometry analysis.
Tumors are weighed and then homogenized in 5 ml 4° C. complete media (CM; RPMI-1640/10% fetal bovine serum (FBS)) through 100 μm strainers to produce single-cell suspensions. Cells are centrifuged for 5 minutes at 466×g, 4° C.; the pellets are resuspended in fresh CM (0.5-3 ml, depending on pellet volume), and cells are counted using a Vi-Cell XR (Beckman Coulter). An equal number of total cells per tumor (10×10^6) are transferred to 96-well V-bottom microplates (Fisher Scientific). Cells are centrifuged (700×g, 3 min., 4° C.) and resuspended in 100 μl 1 μg/ml Fc block in CM (anti-CD16/32 (clone 2.4G2); Tonbo Biosciences) for 30 minutes on ice. Cells are centrifuged (700×g, 3 minutes, 4° C.) and resuspended in 100 μl of one of several fluochrome-conjugated surface marker antibody cocktails [anti-CD3 (clone 145-2C11), -Ly-6G (clone 1A8), -CD11c (clone HL3), -CD45 (clone 30-F11) (BD Biosciences), anti-CD8 (clone 53-6.7) (Biolegend), -CD11b (clone M1/70), -CD3 (clone 145-2C11), -F4/80 (clone BM8), -CD4 (clone RM4-5), (eBioscience)] containing a fixable viability dye (eBioscience) and incubated for 30 minutes on ice covered from light. Cells are twice washed with 200 μl CM and centrifuged (700×g, 3 min., 4° C.). Following the second wash, cells are fixed, permeabilized, and intracellularly stained for Ki67 (clone SolA15) (eBioscience) using the Foxp3/Transcription Factor Staining Buffer Set (eBioscience), following the manufacturer's instructions with noted modifications. Briefly, cells are fixed in 100 μl/well for 30 min., followed by 100 μl/well permeabilization buffer with or without intracellular stain (depending on the staining panel used) for 30 min. Cells are twice washed with 200 μl 1× permeabilization buffer and centrifuged (700×g, 3 min., 4° C.), followed by resuspension in PBS with 2% FBS. 1×10^6 events, excluding debris, are captured for each sample using a 10-channel LSR II cytometer (BD Biosciences) and analyzed using FlowJo V.10.0.8 software. Data is represented as percent of tumor cells, with noted exceptions where represented as percent of parent population. Post-hoc t-test following ANOVA is used for statistical analysis between vehicle and treatment groups.

CT-26 tumors [2] = test: Gene expression analysis (Taqman) of excised CT-26 tumors; format: in vivo, mice; conditions: all genes of Table 4; single-agent groups versus vehicle; result in words
Protocol: as §1
For RNA isolation from the tumor, approximately 30 mg tissue is cut. RNA is extracted by RNeasy Protocol (version January 2002) using RNeasy 96-well Column Plates (Qiagen, Valencia, Calif.; Cat #74182) and QiaVac 96 vacuum manifold at 15 psi vacuum. […] The total RNA concentration is estimated using Nanodrop ND-1000 spectrophotometer by absorbance at 260 nm (Thermo Scietific). […]
For Taqman procedure, 100 μL of cDNA is diluted with 200 μL RNase/DNase-free water in 96-Well Clear Optical Reaction Plate (Applied Biosystems, Cat #4306737) and transferred to 2 mL RNase/DNase-free tubes (Ambion, Cat #AM12475). […] Samples are dispensed with Tecan Automated Pipetting Workstation (Tecan US Inc., Durham, N.C.; Model: Freedom Evo-100 or Evo-150), and plates are read in ABI Prism 9700HT SDS plate reader with following protocol settings: 50° C. for 2 minutes, 95° C. for 10 minutes, and 40 cycles at 95° C. for 15 seconds and 60° C. for 1 minute. […] All calculations are done in Microsoft Excel spreadsheet template, and % inhibition is calculated from control values. […]

CT26 cells = test: CT26 colorectal tumor growth in BALB/C mice (in-vivo study); conditions: CT26 s.c. in BALB/C mice
Protocol: For in-vivo studies 1×10^6 CT26 cells (ATCC® CRL2639™) a colorectal cancer cell line, in 0.2 mL Hank's Balanced Salt Solution (HBSS) is implanted by subcutaneous injection in the hind leg of 6-8 weeks of age BALB/C female mice (Harlan Laboratories). Mice are fed ad libitum on normal chow. Treatment is initiated on day 6 of tumor implantation with oral administration (gavage) of Compound A in 1% Sodium carboxymethyl cellulose (Na-CMC) in 0.25% Tween® 80, or intraperitoneal injection of mouse anti PD-L1 antibody (10F.9G2, BioXcell Catalogue #: BE0101) in phosphate buffered saline (PBS) or intraperitoneal injection of mouse anti PD-1 (CD279) antibody (Clone: RMP1-14, BioXCell #: BP0146-R) in PBS or their respective vehicle in 0.2 mL volume. Compound A is administered at 8 mg/kg on a Monday, Wednesday and Friday schedule for 2 weeks and 10F.9G2 and RMP1-14 are administered at 250 μg/dose/animal on Monday and Thursday schedule for 2 weeks.
Tumor growth and body weight are monitored over time to evaluate efficacy and signs of toxicity. Bidimensional measurements of tumors are performed twice a week and tumor volumes are calculated based on the following formula: (Tumor Volume)=[(L)×(W2)×(Π/6)] where L is mid-axis length and W is mid-axis width. Tumor volume data are transformed to a log scale to equalize variance across time and treatment groups. The log volume data are analyzed with a two-way repeated measures analysis of variance by time and treatment using the MIXED™ procedures in SAS™ software (version 8.2). The correlation model for the repeated measures is spatial power. Test Groups are: • 1: 1% CMC/0.25% Tween® 80/0.05% Antifoam, Monday-Wednesday-Friday ×2, PO/PBS Monday-Thursday ×2, IP • 2: Compound A, 8 mg/kg, Monday-Wednesday-Friday ×2, PO • 3: Compound B (PD-L1), 250 μg/dose, Monday-Thursday ×2, IP • 4: Compound C (PD-1), 250 μg/dose, Monday-Thursday ×2, IP • 5: Compound A, 8 mg/kg, Monday-Wednesday-Friday ×2, PO/Compound B (PD-L1), 250 μg/dose, Monday-Thursday ×2, IP • 6: Compound A, 8 mg/kg, Monday-Wednesday-Friday ×2, PO/Compound C (PD-1), 250 μg/dose, Monday-Thursday ×2, IP
Tumor growth and body weight are monitored over time to evaluate efficacy and signs of toxicity. Bidimensional measurements of tumors are performed twice a week and tumor volumes are calculated based on the following formula: (Tumor Volume)=[(L)×(W2)×(Π/6)] where L is mid-axis length and W is mid-axis width. Tumor volume data are transformed to a log scale to equalize variance across time and treatment groups. The log volume data are analyzed with a two-way repeated measures analysis of variance by time and treatment using the MIXED™ procedures in SAS™ software (version 8.2). The correlation model for the repeated measures is spatial power. Treated groups are compared to the control group at each time point. The MIXED™ procedure is also used separately for each treatment group to calculate adjusted means and standard errors at each time point. Both analyses account for the autocorrelation within each animal and the loss of data that occurs when animals with large tumors are removed from the study early. […] Antitumor activity is expressed as a tumor volume percentage for treatment versus control (% T/C) and is calculated by comparing tumor volume in the treatment group with vehicle treatment group. Percentage T/C and statistical significance value (p value) for the treatment groups is measured essentially as described above and summarized in Table 2. […]

## C[C@H](NC(=O)CCC(F)(F)F)C(=O)N[C@@H]1C(=O)N(CCO)c2ncccc2-c2ccccc21 [Compound A, 4,4,4-trifluoro-N-[(1S)-2-[[(7S)-5-(2-hydroxyethyl)-6-oxo-7H-pyrido[2,3-d][3]benzazepin-7-yl]amino]-1-methyl-2-oxo-ethyl]butanamide]
CT-26 tumors [1]
  CD4+/Ki67+ (% of CD4+) Mean % ± SEM: 7.6 ± 0.5%
  CD8+/Ki67+ (% of CD8+) Mean % ± SEM: 23.1 ± 2.0%
  CD11b + F4/80+ (% of Tumor) Mean % ± SEM: 0.89 ± 0.15%
  CD11b + Ly-6G + F4/80− (% of Tumor) Mean % ± SEM: 1.12 ± 0.08%
  CD11b+ (% of Tumor) Mean % ± SEM: 2.9 ± 0.2%
  CD11c+ (% of Tumor) Mean % ± SEM: 0.42 ± 0.06%
CT-26 tumors [2]
  change in the expression of genes examined: No significant change
CT26 cells; study day 8
  Tumor volume: Geometric Mean: 47.96 mm^3
CT26 cells; study day 10
  Tumor volume: Geometric Mean: 88.80 mm^3
CT26 cells; study day 14
  Tumor volume: Geometric Mean: 376.50 mm^3
CT26 cells; study day 17
  Tumor volume: Geometric Mean: 751.13 mm^3
CT26 cells; study day 20
  Tumor volume: Geometric Mean: 1227.40 mm^3

From patent publication US11826317B2, “Combination therapy with notch and PD-1 or PD-L1 inhibitors” (Eli Lilly and Company, priority 2016, dated 2023)
